Measured values from PMC7153278, “Discovery of Membrane-Bound Pyrophosphatase Inhibitors Derived from an Isoxazole Fragment” (ACS Medicinal Chemistry Letters, 2020).

Biological target: Thermotoga maritima mPPase (TmPPase) (Thermotoga maritima, UniProt Q9S5X0)
Assay: TmPPase inhibition assay (96-well plate, orthophosphate determination)
Format: biochemical
Conditions: 2-bromophenyl carboxylates 25 and 26 versus 5 and 23; call rule not given here
Protocol: The inhibition assay was measured in 96 well plate assay as previously reported.5,6 Briefly, 1 µL of purified TmPPase (13 mg/mL) was reactivated in 99 µL of reactivation buffer (20 mM 2-(N-morpholino) ethanesulfonic acid (MES) pH 6.5, 3.5% (v/v) glycerol, 2 mM dithiothreitol (DTT), 4.5% dodecyl maltoside (DDM) and 12 mg/mL L-α-phosphatidylcholine from soybean) and incubated at 55 °C for 15 min. For the assay, to each tube strips, 0.2 µL of the reactivated enzyme was added to 14.8 µL of reaction buffer (200 mM Tris-Cl pH 8.0, 8.0 mM MgCl2, 333 mM KCl, and 67 mM NaCl) and 25 µL of inhibitor. The reaction mixtures were sealed with an adhesive sealing sheet (Thermo Scientific) and incubated at 71 °C for 5 min. The reactions were started with the addition of 10 µL of 2 mM sodium pyrophosphate, further incubation at 71 °C for 5 min and stopped by placing the reaction mixtures on ice for 10 min. The color development was done with the addition of ammonium heptamolybdate + ascorbic acid solution on ice for 10 min and then 90 µL of arsenic solution, at room temperature, for a minimum of 30 min. 180 µL of each reaction mixtures was then transferred into a clear 96 well polystyrene microplate and the absorbance was measured at 860 nm using a microplate spectrophotometer (MultiSkan Go, Thermo Scientific). The pilot inhibitor screening of 16 phosphate-mimicking fragments was done at 100 μM inhibitor concentration. Further screening was done with three different concentrations; 1 μM, 5 μM and 50 μM for soluble compounds, and 1 μM, 5 μM, and 20 μM for sparingly soluble compounds.6 The best hits were validated using 8 concentrations in triplicate in TmPPase.
The potent hits 12k and 12l compounds were then tested on the P. falciparum (PfPPase-VP1) membrane fractions expressed in baculovirus-infected insect cells (the expression method and further enzyme analysis will be described in more detail elsewhere). Briefly, to each tube strips, 2.4 µL of PfPPase-VP1 membrane fraction (5 mg/mL) was added into 12.6 µL of reaction buffer (200 mM Tris-Cl pH 8.0, 8.0 mM MgCl2, 333 mM KCl, 67 mM NaCl, 3.3 mM NaF, and 17 μM Gramicidin D) and 25 µL of inhibitor. The reaction mixtures were incubated at 30 °C for 5 min and the assay was started by the addition of 10 µL of 2 mM sodium pyrophosphate and further incubation at 30 °C for 10 min. The reaction termination and color development were done as before.
The in vitro anti-plasmodial activity assay strain 3D7 was maintained in culture as described previously.7 Briefly, parasites were cultured in O+ human erythrocytes at 5% haematocrit in RPMI - 1640 medium supplemented with 0.5% Albumax II (Gibco, Carlsbad, CA, USA), 200 μM hypoxanthine (Sigma, St. Louis, MO, USA) and 20 μg/mL gentamycin (Gibco). Parasites were synchronized with the sorbitol method as described. 8 Test compound was dissolved in DMSO to make a stock solution of 10 mM. Two -fold serial dilutions of the test compound were made in the culture medium to cover the range of 400 µM – 400 nM. Fifty microliters of each dilution were mixed in 96 well plate with 150 µL of 2% haematocrit of 0.5% parasitemia (ring stage). DMSO concentration in the highest compound concentration w as 0.1%. After 72 h incubation at 37 °C, the parasite growth was quantified using fluorescent SYBR Green I ® -based assay as described. 9 The half-maximal inhibitory concentration (IC 50) of the test compound was assessed using the non-linear regression fit model in Prism 7 (GraphPad Software). The potent anti-malarial drug, artemisinin, was use in parallel as a positive control. Each concentration of the test compound was tested in duplicate and the assay was repeated three times. The mean and standard deviation of the three repeats were used to estimate the IC50.
IC50 determinations were done using R 3.6.110 and the n-parameter logistic regression (nplr) package11 version 0.1-7. In this package, the weighted nplr, given x (compound concentrations) and […]

Sequence of Thermotoga maritima mPPase (TmPPase) (Q9S5X0 whole entry): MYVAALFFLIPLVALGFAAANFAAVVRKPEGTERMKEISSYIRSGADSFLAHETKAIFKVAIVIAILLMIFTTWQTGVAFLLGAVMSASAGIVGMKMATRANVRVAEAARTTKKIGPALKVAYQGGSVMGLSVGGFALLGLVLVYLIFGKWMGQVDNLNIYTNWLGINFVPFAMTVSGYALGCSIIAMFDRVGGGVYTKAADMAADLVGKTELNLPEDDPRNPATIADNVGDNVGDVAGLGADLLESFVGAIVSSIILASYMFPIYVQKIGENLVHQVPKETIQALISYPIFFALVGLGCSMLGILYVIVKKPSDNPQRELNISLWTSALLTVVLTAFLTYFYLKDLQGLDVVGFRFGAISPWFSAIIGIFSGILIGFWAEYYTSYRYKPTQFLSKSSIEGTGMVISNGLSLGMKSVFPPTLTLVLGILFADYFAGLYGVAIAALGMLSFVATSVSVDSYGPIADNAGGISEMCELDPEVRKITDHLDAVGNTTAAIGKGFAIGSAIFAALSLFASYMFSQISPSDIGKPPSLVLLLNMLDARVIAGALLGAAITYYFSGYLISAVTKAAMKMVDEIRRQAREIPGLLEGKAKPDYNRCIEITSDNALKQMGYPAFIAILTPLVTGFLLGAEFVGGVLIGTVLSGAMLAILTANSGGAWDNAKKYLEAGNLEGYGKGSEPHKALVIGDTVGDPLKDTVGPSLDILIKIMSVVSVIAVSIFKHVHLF

SMILES | fold loss in activity compared to the carboxylic acids [fold]
Cc1nc(-c2cc(C(=O)Oc3ccccc3Br)no2)cs1 [Compound 25] | 27
O=C(Oc1ccccc1Br)c1cnc(-c2ccccc2)s1 [Compound 26] | 1.6

Same assay, conditions: IC50 [CI95%] (µM), purified TmPPase; unrounded values of the molecular formula strings file

SMILES | IC50 [µM]
CCOC(=O)c1cc(-c2cccc(C(C)(C)C)c2)on1 [Compound 10j] | 1210
O=C(Oc1ccccc1Br)c1cc(-c2ccc([N+](=O)[O-])cc2)on1 [Compound 12h] | 19.6
CCOC(=O)c1cc(-c2ccc(OC)c(S(=O)(=O)Nc3cc(C)on3)c2)on1 [SI-17] | 240
CCOC(=O)c1cc(-c2ccc(OC)c(S(=O)(=O)NC3CCCc4ccccc43)c2)on1 (centres unmarked) [SI-19] | 29.1
CCOC(=O)c1cc(-c2ccc(OC)c(S(=O)(=O)Nc3ccc(F)cc3Cl)c2)on1 [SI-29] | 180

Same assay, conditions: IC50 [CI95%], purified TmPPase; 95% confidence interval in square brackets

SMILES | IC50 [µM]
O=C(Oc1ccccc1Br)c1cc(-c2ccc([N+](=O)[O-])cc2)on1 [Compound 12h] | 20
CCOC(=O)c1cc(-c2ccc(OC)c(S(=O)(=O)Nc3cc(C)on3)c2)on1 [SI-17] | 240
CCOC(=O)c1cc(-c2ccc(OC)c(S(=O)(=O)NC3CCCc4ccccc43)c2)on1 (centres unmarked) [SI-19] | 29
CCOC(=O)c1cc(-c2ccc(OC)c(S(=O)(=O)Nc3ccc(F)cc3Cl)c2)on1 [SI-29] | 180

Same assay, conditions: TmPPase

SMILES | biological activity (in words)
Cc1c(-c2cc(C(=O)O)no2)cnn1C [Compound 6] | lacked biological activity
CCOC(=O)c1cc(-c2cccc(-c3cc(C(=O)OCC)no3)c2)on1 [Compound 10n] | neither the carboxylic acid 11n nor the ester 10n were notably active
O=C(O)c1cc(-c2ccccc2)on1 [Compound 11a] | inactive
O=C(O)c1cc(-c2ccc([N+](=O)[O-])cc2)on1 [Compound 11h] | did not lead to the desired activity
O=C(O)c1cc(-c2cc(C(F)(F)F)cc(C(F)(F)F)c2)on1 [Compound 11m] | did not lead to the desired activity
O=C(O)c1cc(-c2cccc(-c3cc(C(=O)O)no3)c2)on1 [Compound 11n] | neither the carboxylic acid 11n nor the ester 10n were notably active
Cc1cc(C)cc(-c2cc(C(=O)Nc3ccccc3Br)no2)c1 [Compound 28] | inactive

Same assay, conditions: computed using the pIC50 and the Heavy Atom Count (LEHA) normalization method, Discovery Studio

SMILES | LE (ligand efficiency)
O=c1[nH]c2ccc(S(=O)(=O)CCO)cc2o1 [Compound 2] | 0.27
O=C(Oc1ccccc1Br)c1cc(-c2ccc([N+](=O)[O-])cc2)on1 [Compound 12h] | 0.19
Cc1cccc(-c2cc(C(=O)Oc3ccccc3Br)no2)c1 [Compound 12i] | 0.23
CC(C)(C)c1cccc(-c2cc(C(=O)Oc3ccccc3Br)no2)c1 [Compound 12j] | 0.20
CC(C)(C)c1cc(C(=O)Nc2nccs2)cc(C(C)(C)C)c1 [Compound 13] | 0.20
CC(C)(C)c1cc(C(=O)Nc2ccc(S(N)(=O)=O)cc2)cc(C(C)(C)C)c1 [Compound 14] | 0.16
CC(C)(C)c1cc(C(=O)Nc2ccccc2Br)cc(C(C)(C)C)c1 [Compound 15] | 0.18
O=C(O)c1cnc(-c2ccccc2)s1 [Compound 23] | 0.32
O=C(Oc1ccccc1Br)c1cnc(-c2ccccc2)s1 [Compound 26] | 0.20
Cc1cc(C)cc(-c2cc(C(=O)Oc3ccccc3)no2)c1 [Compound 27] | 0.20
CCOC(=O)c1cc(-c2ccc(OC)c(S(=O)(=O)NC3CCCc4ccccc43)c2)on1 (centres unmarked) [SI-19] | 0.14

Same assay, conditions: purified TmPPase; 95% confidence interval in square brackets

SMILES | IC50 [CI95%]
Cc1c(-c2cc(C(=O)O)no2)cnn1C [Compound 6] | Inactive
CCOC(=O)c1cc(-c2ccccc2)on1 [Compound 10a] | Inactive
CCOC(=O)c1cc(-c2ccccc2C(=O)OC)on1 [Compound 10b] | Inactive
CCOC(=O)c1cc(-c2cccc(C(=O)OC)c2)on1 [Compound 10c] | Inactive
CCOC(=O)c1cc(-c2ccc(C(=O)OC)cc2)on1 [Compound 10d] | Inactive
CCOC(=O)c1cc(-c2ccccc2OC)on1 [Compound 10e] | Inactive
CCOC(=O)c1cc(-c2cccc(OC)c2)on1 [Compound 10f] | Inactive
CCOC(=O)c1cc(-c2ccc(OC)cc2)on1 [Compound 10g] | Inactive
CCOC(=O)c1cc(-c2ccc([N+](=O)[O-])cc2)on1 [Compound 10h] | Inactive
CCOC(=O)c1cc(-c2cccc(C)c2)on1 [Compound 10i] | Inactive
CCOC(=O)c1cc(-c2cccc(C(C)(C)C)c2)on1 [Compound 10j] | Slightly active
CC(C)(C)c1cc(C(=O)NCC(=O)O)cc(C(C)(C)C)c1 [Compound 19] | Inactive
CC(C)(C)c1cc(CCC(=O)O)cc(C(C)(C)C)c1 [Compound 20] | Inactive
O=C(O)c1cc(-c2ccc([N+](=O)[O-])cc2)[nH]n1 [Compound 22] | Inactive
Nc1ccc(CO)c(B(O)O)c1 [SI-1] | Inactive
Nc1ccc(S(=O)(=O)NC2=NCCS2)cc1 [SI-2] | Inactive
O=C(O)c1ccc2c(c1)B(O)OC2 [SI-3] | Inactive
O=C(O)CS(=O)(=O)c1ccccc1[N+](=O)[O-] [SI-4] | Inactive
CC1(C)CS(=O)(=O)N(c2ccc(S(=O)(=O)Cl)cc2)C1=O [SI-5] | Inactive
O=C(O)c1ccc2c(c1)S(=O)(=O)NC2=O [SI-6] | Inactive
O=C1CS(=O)(=O)c2ccccc21 [SI-7] | Inactive

SMILES | IC50 [CI95%]
Nc1ccc(S(=O)(=O)NCC(=O)O)cc1 [SI-8] | Inactive
O=C(O)CN1C(=O)c2ccccc2S1(=O)=O [SI-9] | Inactive
CC(=O)Nc1ccc(S(=O)(=O)NC(CO)C(=O)O)cc1 (centres unmarked) [SI-10] | Inactive
Nc1nnnn1CC(=O)O [SI-11] | Inactive
CS(=O)(=O)Nc1ccc(C#N)cc1 [SI-12] | Inactive
CCOC(=O)c1cc(-c2csc(CS(C)(=O)=O)n2)on1 [SI-13] | Inactive
CCOC(=O)c1cc(-c2csc(CS(=O)(=O)c3ccccn3)n2)on1 [SI-14] | Inactive
CCOC(=O)c1cc(-c2csc(-c3cccc(Cl)c3)n2)on1 [SI-15] | Inactive
CCOC(=O)c1cc(-c2csc(Nc3ccccc3)n2)on1 [SI-16] | Inactive
CCOC(=O)c1cc(-c2ccc(OC)c(S(=O)(=O)Nc3ncccc3C)c2)on1 [SI-18] | Inactive
CCOC(=O)c1cc(-c2ccc(OC)c(S(=O)(=O)N3CCCc4ccccc43)c2)on1 [SI-20] | Inactive
CCOC(=O)c1cc(-c2ccc(OC)c(S(=O)(=O)N3CC(=O)Nc4ccccc43)c2)on1 [SI-21] | Inactive
CCOC(=O)c1cc(-c2ccc(OC)c(S(=O)(=O)N3CCOc4ccccc43)c2)on1 [SI-22] | Inactive
CCOC(=O)c1cc(-c2ccc(OC)c(S(=O)(=O)N3CCOCC3)c2)on1 [SI-23] | Inactive
COc1ccc(-c2cc(C(=O)O)no2)cc1S(=O)(=O)N1CCOCC1 [SI-24] | Inactive
CCOC(=O)c1cc(-c2ccc(OC)c(S(=O)(=O)N3CCc4ccccc43)c2)on1 [SI-25] | Inactive
CCOC(=O)c1cc(-c2ccc(OC)c(S(=O)(=O)NC3CCCC3)c2)on1 [SI-26] | Inactive
CCOC(=O)c1cc(-c2ccc(OC)c(S(=O)(=O)N3CCCC3)c2)on1 [SI-27] | Inactive
COc1ccc(-c2cc(C(=O)O)no2)cc1S(=O)(=O)N1CCCC1 [SI-28] | Inactive
CCOC(=O)c1cc(-c2ccc(OC)c(S(=O)(=O)Nc3cccc(Cl)c3)c2)on1 [SI-30] | Inactive

Same assay, conditions: versus 12k

SMILES | fold loss of inhibition on removing the bromine atom [fold]
Cc1cc(C)cc(-c2cc(C(=O)Oc3ccccc3)no2)c1 [Compound 27] | 3.6
